In patent US11946094B2, “Combination therapies and methods of use thereof” (Augusta University Research Institute, Inc., priority 2017, dated 2024):

Tested on: OVCAR-8 cells
Experiment: Drug-siRNA combination screen: 346-compound anticancer library at 100 nM, CCK-8 viability
Details: not given

SMILES	Score (sum of observed SD values for 18 genes) [SD]
CNC(=O)c1ccc(N2C(=S)N(c3ccc(C#N)c(C(F)(F)F)c3)C(=O)C2(C)C)cc1F [Enzalutamid]	−1.24
Nc1nc(F)nc2c1ncn2[C@@H]1O[C@H](COP(=O)(O)O)[C@@H](O)[C@@H]1O [Fludarabine Phosphate]	−11.05

Same assay, conditions: OVCAR-8; drug 100 nM plus siRNA knockdown of each of 18 genes; distance VAB−VA×VB in SD; single gene contributes at most +5 / −5; negative = synergy, positive = antagonism

SMILES	Score (sum of observed SD values for 18 genes) [SD]
COc1cc2ncnc(Nc3ccc(F)c(Cl)c3)c2cc1NC(=O)/C=C/CN1CCCCC1 [Dacomitinib]	-68.29
CCC(CC)CC1(C(=O)Nc2ccccc2SC(=O)C(C)C)CCCCC1 [Dalcetrapid]	−31.1
CO[C@@H](C(=O)N1Cc2n[nH]c(NC(=O)c3ccc(N4CCN(C)CC4)cc3)c2C1)c1ccccc1 [Danusertib]	−2.99
CCOc1ccc(Cc2cc([C@@H]3O[C@H](CO)[C@@H](O)[C@H](O)[C@H]3O)ccc2Cl)cc1 [Dapagliflozin]	−15.72
CC(=O)OCC(=O)[C@@]1(O)[C@H](C)C[C@H]2[C@@H]3CCC4=CC(=O)C=C[C@]4(C)[C@@]3(F)[C@@H](O)C[C@@]21C [Dexamethasone Acetate]	6.26
C[C@@H]1C[C@H]2[C@@H]3CCC4=CC(=O)C=C[C@]4(C)[C@@]3(F)[C@@H](O)C[C@]2(C)[C@@]1(O)C(=O)CO [Dexamethasone]	−3.28
O=S(=O)([O-])CCSSCCS(=O)(=O)[O-].[Na+].[Na+] [Dimesna]	−2.17
CCN(CC)C(=S)SSC(=S)N(CC)CC [Disulfiram]	37.83
Cc1ccc(-n2nc(C(C)(C)C)cc2NC(=O)Nc2ccc(OCCN3CCOCC3)c3ccccc23)cc1 [Doramapimod]	-50.99
CCN[C@H]1C[C@H](C)S(=O)(=O)c2sc(S(N)(=O)=O)cc21.Cl [Dorzolamide HCI]	9.66
CN1CCN(c2ccc3nc(-c4c(N)c5c(F)cccc5[nH]c4=O)[nH]c3c2)CC1 [Dovitinib]	−22.96
C=C1/C(=C\C=C2/CCC[C@]3(C)[C@@H]([C@H](C)/C=C/[C@H](C)C(C)C)CC[C@@H]23)C[C@@H](O)C[C@@H]1O [Doxercalciferol]	−0.53
COc1cccc2c1C(=O)c1c(O)c3c(c(O)c1C2=O)C[C@@](O)(C(=O)CO)C[C@@H]3O[C@H]1C[C@H](N)[C@H](O)[C@H](C)O1 [Doxorubicin]	15.09
Cc1cc(Nc2cc(N3CCN(C)CC3)nc(/C=C/c3ccccc3)n2)n[nH]1 [ENMD-2076]	−47.04
NC(=O)C1CCCc2c1[nH]c1ccc(Cl)cc21 (stereo not drawn) [EX 527]	−22.45
CN(NC(=O)CC(=O)NN(C)C(=S)c1ccccc1)C(=S)c1ccccc1 [Elesclomol]	11.26
Nc1ccccc1NC(=O)c1ccc(CNC(=O)OCc2cccnc2)cc1 [Entinostat]	12.38
Cn1cc(C2=C(c3cn(C4CCN(Cc5ccccn5)CC4)c4ccccc34)C(=O)NC2=O)c2ccccc21 [Enzastaurin]	−6.53
O=C(O[C@@H]1Cc2c(O)cc(O)cc2O[C@@H]1c1cc(O)c(O)c(O)c1)c1cc(O)c(O)c(O)c1 [Epigallocatechin gallate]	3.64
C/C(=C\c1csc(C)n1)[C@@H]1C[C@@H]2O[C@@H]2CCC[C@H](C)[C@H](O)[C@@H](C)C(=O)C(C)(C)[C@@H](O)CC(=O)O1 [Epothilone A]	16.97
C/C(=C\c1csc(C)n1)[C@@H]1C[C@@H]2O[C@]2(C)CCC[C@H](C)[C@H](O)[C@@H](C)C(=O)C(C)(C)[C@@H](O)CC(=O)O1 [Epothilone B]	17.57
Cc1c(C(=O)Nc2ccc(N3C[C@@H](C)O[C@@H](C)C3)nc2)cccc1-c1ccc(OC(F)(F)F)cc1 [Erismodegib]	3.22
C[C@]12CC[C@@H]3c4ccc(O)cc4CC[C@H]3[C@@H]1CC[C@@H]2O [Estradiol]	−26.58
C[C@]12CC[C@@H]3c4ccc(O)cc4CC[C@H]3[C@@H]1CCC2=O [Estrone]	−21.19
O=C1[C@H](CC[C@H](O)c2ccc(F)cc2)[C@@H](c2ccc(O)cc2)N1c1ccc(F)cc1 [Ezetimibe]	−5.31
Cc1nc(-c2ccc(OCC(C)C)c(C#N)c2)sc1C(=O)O [Febuxostat]	−18.04
Cc1cnc(Nc2ccc(OCCN3CCCC3)cc2)nc1Nc1cccc(S(=O)(=O)NC(C)(C)C)c1 [Fedratinib]	56.68
CN1CC[C@H](c2c(O)cc(O)c3c(=O)cc(-c4ccccc4Cl)oc23)[C@H](O)C1 [Flavopiridol]	−23.63

SMILES	Score (sum of observed SD values for 18 genes) [SD]
CC(C)C(=O)Nc1ccc([N+](=O)[O-])c(C(F)(F)F)c1 [Flutamide]	3.96
CC(C)n1c(/C=C/C(O)CC(O)CC(=O)O)c(-c2ccc(F)cc2)c2ccccc21 (stereo not drawn) [Fluvastatin]	−20.51
C[C@]12CCC(=O)C(O)=C1CC[C@@H]1[C@@H]2CC[C@]2(C)C(=O)CC[C@@H]12 [Formestane]	−14.97
COc1cc(Nc2ncc(F)c(Nc3ccc4c(n3)N(COP(=O)(O)O)C(=O)C(C)(C)O4)n2)cc(OC)c1OC [Fostamatinib]	−4.27
O=c1[nH]c(=O)n(C2CCCO2)cc1F (stereo not drawn) [Ftorafur]	−9.75
OCCn1cc(-c2ccc3c(c2)CC/C3=N\O)c(-c2ccncc2)n1 [GDC - 0879]	23.19
CS(=O)(=O)N1CCN(Cc2cc3nc(-c4cccc5[nH]ncc45)nc(N4CCOCC4)c3s2)CC1 [GDC-0941]	-58.02
C[C@@H](Oc1cc(-n2cnc3ccc(CN4CCN(C)CC4)cc32)sc1C(N)=O)c1ccccc1C(F)(F)F [GSK461364]	4.65
O=C(O)c1ccc(-c2c[nH]c3ncc(-c4ccccc4)cc23)cc1C1CCCC1 [GSK650394]	12.12
CCc1cc(Nc2nccc(-c3c(-c4ccc(OC)c(C(=O)Nc5c(F)cccc5F)c4)nc4ccccn34)n2)c(OC)cc1N1CCC(N2CCN(S(C)(=O)=O)CC2)CC1 [GSK1904529A]	−10.83
COc1ncc(-c2ccc3nccc(-c4ccnnc4)c3c2)cc1NS(=O)(=O)c1ccc(F)cc1F [GSK2126458]	−22.4
Cl.O=C(O)Cc1cccc(OCCCN(Cc2cccc(C(F)(F)F)c2Cl)CC(c2ccccc2)c2ccccc2)c1 [GW3965 HCI]	−11.35
CC(C)c1onc(-c2c(Cl)cccc2Cl)c1COc1ccc(/C=C/c2cccc(C(=O)O)c2)c(Cl)c1 [GW4064]	−12.2
CC(C)c1cc(-c2n[nH]c(=O)n2-c2ccc3c(ccn3C)c2)c(O)cc1O [Ganetespib]	8.4
COC1=C2C[C@@H](C)C[C@H](OC)[C@H](O)[C@@H](C)/C=C(\C)[C@H](OC(N)=O)[C@@H](OC)/C=C\C=C(/C)C(=O)NC(=CC1=O)C2=O [Geldanamycin]	4.47
Cl.Nc1ccn([C@@H]2O[C@H](CO)[C@@H](O)C2(F)F)c(=O)n1 [Gemcitibine HCI]	35.88
Nc1ccn([C@@H]2O[C@H](CO)[C@@H](O)C2(F)F)c(=O)n1 [Gemcitibine]	34.12
Cc1cc2c(C(C)C)c(O)c(O)c(C=O)c2c(O)c1-c1c(C)cc2c(C(C)C)c(O)c(O)c(C=O)c2c1O [Gossypol]	−13.34
C[C@]12CCC(=O)C=C1CC[C@@H]1[C@@H]2[C@@H](O)C[C@@]2(C)[C@H]1CC[C@]2(O)C(=O)CO [Hydrocortisone]	−21.54
Cc1ccccc1-n1c(Cn2cnc3c(N)ncnc32)nc2cccc(C)c2c1=O [IC - 87114]	14.65
CC(C)n1nc(-c2ccc3oc(N)nc3c2)c2c(N)ncnc21 [INK 128]	−44.98
C=CC(=O)N1CCC[C@@H](n2nc(-c3ccc(Oc4ccccc4)cc3)c3c(N)ncnc32)C1 [Ibrutinib]	-58.62
NC(=O)c1ccc(I)c([N+](=O)[O-])c1 [Iniparib]	−21.58
CCc1c2c(nc3ccc(OC(=O)N4CCC(N5CCCCC5)CC4)cc13)-c1cc3c(c(=O)n1C2)COC(=O)[C@]3(O)CC.Cl [Irinotecan HCI]	−7.65
CCc1c2c(nc3ccc(OC(=O)N4CCC(N5CCCCC5)CC4)cc13)-c1cc3c(c(=O)n1C2)COC(=O)[C@]3(O)CC [Irinotecan]	−36.08
Cc1ccc(C(=O)N(CCCN)[C@@H](c2nc3cc(Cl)ccc3c(=O)n2Cc2ccccc2)C(C)C)cc1 [Ispinesib]	1.22
CCC(C)n1ncn(-c2ccc(N3CCN(c4ccc(OCC5COC(Cn6cncn6)(c6ccc(Cl)cc6Cl)O5)cc4)CC3)cc2)c1=O (stereo not drawn) [Itraconazole]	−13.51

Same assay, conditions: OVCAR-8; drug 100 nM; panel of 18 siRNA knockdowns

SMILES	synergy / antagonism of drug with gene knockdowns, in words
Cc1cc(Nc2cc(N3CCN(C)CC3)nc(/C=C/c3ccccc3)n2)n[nH]1 [ENMD-2076]	significant synergy
Nc1ccccc1NC(=O)c1ccc(CNC(=O)OCc2cccnc2)cc1 [Entinostat]	frequently antagonized by knockdown of specific genes
CS(=O)(=O)N1CCN(Cc2cc3nc(-c4cccc5[nH]ncc45)nc(N4CCOCC4)c3s2)CC1 [GDC-0941]	synergy to the vast majority of genes

Same assay, conditions: OVCAR-8; drug 100 nM; siRNA knockdown

SMILES	number of genes (of 18) with high synergy with the drug [genes]	number of genes (of 18) whose knockdown synergizes with the drug [genes]
COc1cc2ncnc(Nc3ccc(F)c(Cl)c3)c2cc1NC(=O)/C=C/CN1CCCCC1 [Dacomitinib]	15	–
Cc1ccc(-n2nc(C(C)(C)C)cc2NC(=O)Nc2ccc(OCCN3CCOCC3)c3ccccc23)cc1 [Doramapimod]	–	11
CO[C@H]1C[C@@H]2CC[C@@H](C)[C@@](O)(O2)C(=O)C(=O)N2CCCC[C@H]2C(=O)O[C@H]([C@H](C)C[C@@H]2CC[C@@H](OCCO)[C@H](OC)C2)CC(=O)[C@H](C)/C=C(\C)[C@@H](O)[C@@H](OC)C(=O)[C@H](C)C[C@H](C)/C=C/C=C/C=C/1C [Everolimus]	–	14
